We go through 38 molecules from patent US8853246B2 (Dow AgroSciences LLC, priority 2009, dated 2014).

Assay [1] concerns Sweetpotato Whitefly-Crawler (Bemisia Tabaci). The experiment in a line: Insecticidal test for sweetpotato whitefly-crawler in foliar spray assay (col. BEMITA). In kind it is in vivo. Particulars: for pest or weed control at 200 ppm: Bemisia tabaci, read-out: BEMITA 200 ppm (Corrected % Control, rating). How it is done:
(§1) The compounds were tested against cotton aphid, green peach aphid, and sweet potato whitefly using procedures described in the following examples and reported in Table 2.
(§2) In each case of Table 2, the rating scale is as follows at 200 ppm.
Insecticidal Test for Sweetpotato Whitefly-Crawler (Bemisia Tabaci) in Foliar Spray Assay
Cotton plants grown in 3-inch pots, with 1 small (3-5 cm) true leaf, were used as test substrate. The plants were placed in a room with whitefly adults. Adults were allowed to deposit eggs for 2-3 days. After a 2-3 day egg-laying period, plants were taken from the adult whitefly room. Adults were blown off leaves using a hand-held Devilbiss sprayer (23 psi). Plants with egg infestation (100-300 eggs per plant) were placed in a holding room for 5-6 days at 82° F. and 50% RH for egg hatch and crawler stage to develop. Four cotton plants were used for each treatment. Compounds (2 mg) were dissolved in 1 mL of acetone solvent, forming stock solutions of 2000 ppm. The stock solutions were diluted 10× with 0.025% Tween 20 in H2O to obtain a test solution at 200 ppm. A hand-held Devilbiss sprayer was used for spraying a solution to both sides of cotton leaf until runoff. Reference plants (solvent check) were sprayed with the diluent only. Treated plants were held in a holding room for 8-9 days at approximately 82° F. and 50% RH prior to grading. Evaluation was conducted by counting the number of live nymphs per plant under a microscope. Insecticidal activity was measured by using Abbott's correction formula and presented in Table 2 (see col. “BEMITA”): Corrected % Control=100*(X−Y)/X • where X=No. of live nymphs on solvent check plants • Y=No. of live nymphs on treated plants Pesticidally Acceptable Acid Addition Salts, Salt Derivatives, Solvates, Ester Derivatives, Polymorphs, Isotopes and Radionuclides

Assay [2] deals with Green Peach Aphid (Myzus Persicae). The experiment in a line: Insecticidal test for green peach aphid in foliar spray assay (col. MYZUPE). Type of assay: in vivo. The conditions noted are these: for pest or weed control at 200 ppm: Myzus persicae, 72 h, read-out: MYZUPE 200 ppm (Corrected % Control, rating). As for the experimental part: as §1, §2
Insecticidal Test for Green Peach Aphid (Myzus Persicae) in Foliar Spray Assay
Cabbage seedlings grown in 3-inch pots, with 2-3 small (3-5 cm) true leaves, were used as test substrate. The seedlings were infested with 20-50 green peach aphids (wingless adult and nymph) one day prior to chemical application. Four pots with individual seedlings were used for each treatment. Compounds (2 mg) were dissolved in 2 mL of acetone/methanol (1:1) solvent, forming stock solutions of 1000 ppm. The stock solutions were diluted 5× with 0.025% Tween 20 in H2O to obtain a test solution at 200 ppm. A hand-held Devilbiss sprayer was used for spraying a solution to both sides of cabbage leaves until runoff. Reference plants (solvent check) were sprayed with the diluent only. Treated plants were held in a holding room for three days at approximately 25° C. and 40% relative humidity (RH) prior to grading. Evaluation was conducted by counting the number of live aphids per plant under a microscope. Corrected % Control=100*(X−Y)/X • where X=No. of live aphids on solvent check plants • Y=No. of live aphids on treated plants

Like-named read-outs stand apart in the source and are kept apart here.

For `CCN(C(=O)c1ccsc1)c1sc(-c2cccnc2)nc1Cl` [Compound 527], the figures for the pest or weed control at 200 ppm in assay [1] (Abbott's correction formula) and in assay [2] (Abbott's correction formula) were 80 to 100% and below 80%, respectively.

For `Cc1nc(-c2cccnc2)sc1NC(=O)C(F)(F)C(F)(F)C(F)(F)C(F)(F)F` [Compound 428], the pest or weed control at 200 ppm in assay [1] (Abbott's correction formula) and in assay [2] (Abbott's correction formula) was below 80% throughout.

In the case of `CC(=O)N1CCCC(C(=O)N(C)c2sc(-c3cccnc3)nc2Cl)C1` (stereo not shown) [Compound 413], the pest or weed control at 200 ppm in assay [1] (sweetpotato whitefly-crawler) was below 80%; in assay [2] (green peach aphid), 80 to 100%.

On to `CN(C(=O)CC[S+](C)[O-])c1sc(-c2cncc(Cl)c2)nc1Cl` (stereo not shown) [Compound 501], for which the pest or weed control at 200 ppm in assay [1] (Abbott's correction formula) and in assay [2] (Abbott's correction formula) was 80 to 100% in each case.

In the case of `Cc1nc(-c2cccnc2)sc1NC(=O)OC1(C)CCCCC1` [Compound 198], the pest or weed control at 200 ppm in assay [1] (sweetpotato whitefly-crawler) and in assay [2] (green peach aphid) was 80 to 100% each time.

Regarding `CSCC(C)C(=O)N(Cc1ccccc1)c1sc(-c2cccnc2)nc1C` (stereo not shown) [Compound 221], the pest or weed control at 200 ppm is below 80% in assay [1] (sweetpotato whitefly-crawler) and 80 to 100% in assay [2] (green peach aphid).

In the case of `CCN(C(=O)C(C)CSC)c1sc(-c2cncc(F)c2)nc1F` (stereo not shown) [Compound 456], the pest or weed control at 200 ppm was below 80% in assay [1] (Abbott's correction formula) and 80 to 100% in assay [2] (Abbott's correction formula).

For `COCCN(C(=O)OC(C)(C)C)c1sc(-c2cccnc2)nc1C` [Compound 460], the pest or weed control at 200 ppm in assay [1] (Abbott's correction formula) and in assay [2] (Abbott's correction formula) was below 80% throughout.

Turning to `Cc1nc(-c2cccnc2)sc1N(C)C(=O)[C@@H]1CCCN1C(=O)OC(C)(C)C` [Compound 292], the pest or weed control at 200 ppm in assay [1] (sweetpotato whitefly-crawler) was 80 to 100%; in assay [2] (green peach aphid) it was below 80%.

Consider `CCOC(=O)N1CCCC(C(=O)N(C)c2sc(-c3cncc(F)c3)nc2C)C1` (stereo not shown) [Compound 586], for which the pest or weed control at 200 ppm in assay [1] (Abbott's correction formula) and in assay [2] (Abbott's correction formula) was 80 to 100% throughout.

In the case of `CCSCCC(=O)N(CC)c1sc(-c2cncc(F)c2)nc1C` [Compound 319], the pest or weed control at 200 ppm in assay [1] (sweetpotato whitefly-crawler) and in assay [2] (green peach aphid) was 80 to 100% each time.

For `CN(C(=O)CC[S+](C)[O-])c1sc(-c2ccc(F)nc2)nc1Cl` (stereo not shown) [Compound 469], the values for the pest or weed control at 200 ppm in assay [1] (Abbott's correction formula) and in assay [2] (Abbott's correction formula) were below 80% and 80 to 100%, respectively.

`Cc1nc(-c2cccnc2)sc1N(C)C(=O)c1ccc(=O)n(C)n1` [Compound 404]: in assay [1] (sweetpotato whitefly-crawler), the “BEMITA 200 ppm (Corrected % Control, rating)” value is “B (Less than 80)”. In addition, in assay [2] (green peach aphid), the “MYZUPE 200 ppm (Corrected % Control, rating)” value was “A (80-100)”.

Regarding `CCN(C(=O)CC(C)(C)SC)c1sc(-c2cncc(F)c2)nc1Cl` [Compound 447], the pest or weed control at 200 ppm in assay [1] (Abbott's correction formula) and in assay [2] (Abbott's correction formula) was 80 to 100% in each case.

`COc1cncc(-c2nc(C)c(NC(=O)C(C)CSC)s2)c1` (stereo not shown) [Compound 137]: the pest or weed control at 200 ppm in assay [1] (sweetpotato whitefly-crawler) and in assay [2] (green peach aphid) was below 80% each time.

Turning to `Cc1nc(-c2cccnc2)sc1N(C)C(=O)OCC(F)(F)F` [Compound 486], the pest or weed control at 200 ppm was below 80% in assay [1] (Abbott's correction formula) and 80 to 100% in assay [2] (Abbott's correction formula).

In the case of `CSCC(C)C(=O)N(C(C)=O)c1sc(-c2cccnc2)nc1C` (stereo not shown) [Compound 184], the pest or weed control at 200 ppm in assay [1] (sweetpotato whitefly-crawler) and in assay [2] (green peach aphid) was 80 to 100% in each case.

For `CSCC(C)C(=O)Nc1sc(-c2cncc(F)c2)nc1Cl` (stereo not shown) [Compound 364], the pest or weed control at 200 ppm in assay [1] (sweetpotato whitefly-crawler) and in assay [2] (green peach aphid) was 80 to 100% in each case.

With `Cc1nc(-c2cccnc2)sc1N(C(=O)C(C)C)C(=O)C(C)C` [Compound 21, N-isobutyryl-N-(4-methyl-2-pyridin-3-yl-thiazol-5-yl)-isobutyramide], the pest or weed control at 200 ppm in assay [1] (sweetpotato whitefly-crawler) and in assay [2] (green peach aphid) was 80 to 100% each time.

`Cc1nc(-c2cccnc2)sc1N(CC(C)C)C(=O)OC(C)(C)C` [Compound 14, Isobutyl-(4-methyl-2-pyridin-3-yl-thiazol-5-yl)-carbamic acid tert-butyl ester]: the pest or weed control at 200 ppm in assay [1] (sweetpotato whitefly-crawler) is 80 to 100%; in assay [2] (green peach aphid), below 80%.

Regarding `CC(=O)OC(C)C(=O)N(C)c1sc(-c2cccnc2)nc1Cl` (stereo not shown) [Compound 336], the “BEMITA 200 ppm (Corrected % Control, rating)” value in assay [1] (sweetpotato whitefly-crawler) is given as “A (80-100)”. Also, the “MYZUPE 200 ppm (Corrected % Control, rating)” value in assay [2] (green peach aphid) was “A (80-100)”.

On to `Cc1nc(-c2cccnc2)sc1N(C)C(=O)c1cnco1` [Compound 343], for which, in assay [1] (sweetpotato whitefly-crawler), the “BEMITA 200 ppm (Corrected % Control, rating)” value is recorded as “B (Less than 80)”. For the same molecule, the “MYZUPE 200 ppm (Corrected % Control, rating)” value in assay [2] (green peach aphid) is listed as “A (80-100)”.

As to `CC(=O)N1CCCC(C(=O)N(C)c2sc(-c3cccnc3)nc2C)C1` (stereo not shown) [Compound 412], the pest or weed control at 200 ppm in assay [1] (sweetpotato whitefly-crawler) and in assay [2] (green peach aphid) was 80 to 100% throughout.

As to `CSC(C)(C)CC(=O)N(C)c1sc(-c2cccnc2)nc1Cl` [Compound 489], the pest or weed control at 200 ppm in assay [1] (Abbott's correction formula) and in assay [2] (Abbott's correction formula) was 80 to 100% throughout.

Consider `C=CCN(C(=O)C(C)CSC)c1sc(-c2cccnc2)nc1C` (stereo not shown) [Compound 426], for which the pest or weed control at 200 ppm in assay [1] (sweetpotato whitefly-crawler) and in assay [2] (green peach aphid) was 80 to 100% in each case.

Regarding `CCN(C(=O)c1ccnc(C)c1)c1sc(-c2cccnc2)nc1Cl` [Compound 544], the pest or weed control at 200 ppm in assay [1] (Abbott's correction formula) is below 80%; in assay [2] (Abbott's correction formula), 80 to 100%.

Take `Cc1nc(-c2cncc(F)c2)sc1N(C)C(=O)C(C)CS(=O)(Cc1ccc(Cl)nc1)=NC#N` (stereo not shown) [Compound 167]: the pest or weed control at 200 ppm was 80 to 100% in assay [1] (sweetpotato whitefly-crawler) and below 80% in assay [2] (green peach aphid).

Take `CSCC(C)C(=O)N(C)c1sc(-c2cncc(F)c2)nc1C` (stereo not shown) [Compound 40]: the pest or weed control at 200 ppm in assay [1] (sweetpotato whitefly-crawler) and in assay [2] (green peach aphid) was 80 to 100% in each case.

Turning to `Cc1nc(-c2cccnc2)sc1NC(=O)c1cnco1` [Compound 342], the pest or weed control at 200 ppm in assay [1] (sweetpotato whitefly-crawler) and in assay [2] (green peach aphid) was below 80% throughout.

Consider `CCN(C(=O)CC(C)SC)c1sc(-c2cncc(F)c2)nc1Cl` (stereo not shown) [Compound 446], for which the pest or weed control at 200 ppm in assay [1] (Abbott's correction formula) and in assay [2] (Abbott's correction formula) was 80 to 100% throughout.

For the molecule `CSCCNC(=S)Nc1sc(-c2cncc(F)c2)nc1Cl` [Compound 450], the pest or weed control at 200 ppm in assay [1] (Abbott's correction formula) and in assay [2] (Abbott's correction formula) was 80 to 100% in each case.

Turning to `CSCC(C)C(=O)Nc1sc(-c2cncc(F)c2)nc1Br` (stereo not shown) [Compound 299], the pest or weed control at 200 ppm in assay [1] (sweetpotato whitefly-crawler) and in assay [2] (green peach aphid) was 80 to 100% throughout.

Consider `CCN(C(=O)CCSCc1ccccc1)c1sc(-c2cccnc2)nc1C` [Compound 320], for which the pest or weed control at 200 ppm in assay [1] (sweetpotato whitefly-crawler) is below 80%; in assay [2] (green peach aphid), 80 to 100%.

Turning to `CN(C(=O)C(F)(F)F)c1sc(-c2cccnc2)nc1Cl` [Compound 6, N-(4-Chloro-2-pyridin-3-yl-thiazol-5-yl)-2,2,2-trifluoro-N-methyl-acetamide], the pest or weed control at 200 ppm in assay [1] (sweetpotato whitefly-crawler) and in assay [2] (green peach aphid) was below 80% throughout.

`CNC(C)C(=O)N(C)c1sc(-c2cccnc2)nc1C` (stereo not shown) [Compound 295]: the pest or weed control at 200 ppm was 80 to 100% in assay [1] (sweetpotato whitefly-crawler) and below 80% in assay [2] (green peach aphid).

As for `CCN(C(=O)C(C)(C)CS(C)(=O)=O)c1sc(-c2cncc(F)c2)nc1C` [Compound 261], the “BEMITA 200 ppm (Corrected % Control, rating)” value in assay [1] (sweetpotato whitefly-crawler) was “A (80-100)”. In assay [2] (green peach aphid), the “MYZUPE 200 ppm (Corrected % Control, rating)” value was “A (80-100)”.

Regarding `CSCC(C)C(=O)N(C(=O)C(C)CSC)c1sc(-c2cccnc2)nc1C` (stereo not shown) [Compound 173], the pest or weed control at 200 ppm in assay [1] (sweetpotato whitefly-crawler) and in assay [2] (green peach aphid) was 80 to 100% throughout.

Regarding `CCCCOC(=O)N(C)c1sc(-c2cccnc2)nc1C` [Compound 483], the pest or weed control at 200 ppm is 80 to 100% in assay [1] (Abbott's correction formula) and below 80% in assay [2] (Abbott's correction formula).
